These results are taken from PMC10641913 (ACS Medicinal Chemistry Letters, 2023).

One assay has as its target Eg.TRPMPZQ (Echinococcus granulosus, UniProt W6UVV9). It counts as cell-based. Conditions: Eg.TRPMPZQ and Mc.TRPMPZQ; for activity at cestode TRPMPZQ orthologs (in words): both cestode channels. How it is done:
(§1) This was done using a fluorescence-based reporter assay to measure changes in cytosolic Ca^2+ in HEK293 cells transiently expressing the individual TRPMPZQ ion channels.
(§2) Sprague et. al. Supporting Information
(§3) Cell Culture and transfection. Activation of the three TRPMPZQ orthologs1 (Sm.TRPMPZQ, Eg.TRPMPZQ and Mc.TRPMPZQ) was measured using a Ca2+ reporter assay, following transient transfection of codon-optimized constructs (Genscript) into HEK293 cells.
(§4) The HEK293 cell line (ATCC CRL-1573.3) was authenticated by STR profiling (ATCC), and cells were evaluated for mycoplasma contamination by monthly scheduled testing (LookOut® Mycoplasma PCR Detection Kit, Sigma). HEK293 cells were cultured at 37 °C in a humidified incubator in Dulbecco’s Modified Eagle Medium (DMEM) supplemented with 10% fetal bovine serum (FBS), penicillin (100 units/mL), streptomycin (100 μg/mL), and L-glutamine (290 μg/mL). Cells were transfected using Lipofectamine-2000 at a density of 3x10^6 cells per petri dish (100 mm diameter) 24 h prior to replating into 384 well plates for functional assays.
(§5) Ca2+ imaging assays. Ca2+ imaging assays were performed using a Fluorescence Imaging Plate Reader (FLIPR TETRA, Molecular Devices). HEK293 cells (naïve or transfected) were seeded (20,000 cells/well) in a black-walled clear-bottomed poly-d-lysine coated 384-well plate (Greiner Bio-One) in DMEM growth media supplemented with 10% FBS. After 24 h, growth medium was removed, and cells were loaded with a fluorescent Ca2+ indicator (Fluo-4 NW dye, Invitrogen) by incubation (20 µL per well, 1 h at 37°C) in Hanks' balanced salt solution (HBSS) assay buffer containing probenecid (2.5 mM) and HEPES (20 mM). Drug dilutions were prepared in assay buffer, without probenecid and dye, in ‘V’-shape 384-well plates (Greiner Bio-one, Germany). After indicator loading, the Ca2+ assay was performed at room temperature. Basal fluorescence was monitored for 20 s, then 5 μL of each drug added, and the signal (raw fluorescence units) was monitored over an additional 250 s. Changes in fluorescence were calculated by subtracting the average basal fluorescence (averaged values between 0 to 20 s) from the maximum fluorescence value. These values were normalized to the response of (±)-PZQ at the corresponding TRPMPZQ channel and plotted. Concentration-response curves were generated in GraphPad Prism (v.
(§6) 9.5.1) using the default three -parameter curve fitting and constraining the bottom of the curve to 0%. The reported EC 50 values represent the mean ± SEM of n ≥ 3 independent transfections. […]

Assay [1] concerns S. mansoni. Also on record: key: “+++” indicates a complete reduction of worms at 50 mg/kg dosing (×5); “++” indicates complete reduction of worms at 500 mg/kg dosing (×5); “+” indicates less than 90% worm reduction at 500 mg/kg dosing (×5); “0” indicates no effect at 500 mg/kg dosing (×5). Conditions: mouse model, dosing ×5; ref [1]; cited from earlier work.
Another assay concerns H. nana. Also on record: key: “+++” indicates a complete reduction of worms at 25 mg/kg dosing (×1); “++” indicates complete reduction of worms at 500 mg/kg dosing (×1); “+” indicates less than 90% worm reduction at 500 mg/kg dosing (×1); “0” indicates no effect at 500 mg/kg dosing (×1). Conditions: mouse model, dosing ×1; ref [1]; cited from earlier work.
For the next assay, the target named is Sm.TRPMPZQ (Schistosoma mansoni, UniProt A0A5K4F0X5). Put plainly: cell-based. It counts as cell-based. Conditions: for this work: EC50 (μM) Sm.TRPMPZQ / EC50: HEK293 transient expression, mean ± SEM, n ≥ 3 independent transfections; for EC50: read-out: this work: EC50 (μM) Sm.TRPMPZQ. How it is done:
as §1, §2, §3, §4, §5, §6

Assay [2] has as its system S. mansoni. Conditions: ref [1]; cited from earlier work.
Assay [3] concerns E. multilocularis protoscoleces. Put plainly: Cestode motility assay on protoscoleces. It counts as cell-based, Echinococcus multilocularis. Conditions: for IC50: Echinococcus multilocularis. How it is done:
To determine IC50 values, concentration–response curves were obtained at multiple time points (Figure 2E–G).
Figure 2 E. multilocularis protoscoleces after treatment with (A) DMSO, (B) (±)-PZQ (1 μM), (C) (R)-2 (30 μM), and (D) (S)-2 (100 μM). (E–G) Concentration–response motility graphs of E. multilocularis protosoleces after treatment with (±)-PZQ (blue circles), (R)-2 (red circles), and (S)-2 (purple circles) after (E) 0.5 h, (F) 12 h, and (G) 24 h. Data are plotted as % motility vs vehicle (DMSO) control (mean ± SEM). […]
Cestode motility assays . Protoscoleces of E. multilocularis strain MB17 were isolated from metacestode material grown in experimentally infected gerbils (kindly provided by Prof. Dr. K. Brehm, University of Würzburg, Germany). Extraction and acti vation of protoscoleces, as well as subsequent motility assays were performed as described previously. 2 In short, protoscoleces were activated by 10% DMSO for 3 h at 37°C, in a humid atmosphere, with 5% CO 2 and left to recover overnight in DMEM (Biochrom, Berlin, Germany) supplemented with 10% FBS (Biochrom) at 37°C, in a humid atmosphere, with 5% CO 2. The next day, 25 protoscoleces were distributed into individual wells of a white, flat -bottom 384 well plate (Huberlab, Aesch, Switzerland). PZQ analogs were added […]
The assay plate was sealed with a clear view seal foil (Huberlab), and motility was measured in a live cell imaging system (Nikon TE2000E, Hamatsu ORCA ER

“And” between values parts separate entries of the source, which are not always exact repeats. Equal values may be shown once. Some results are limits rather than exact numbers.

Sequence of Sm.TRPMPZQ (A0A5K4F0X5 entry or part of it): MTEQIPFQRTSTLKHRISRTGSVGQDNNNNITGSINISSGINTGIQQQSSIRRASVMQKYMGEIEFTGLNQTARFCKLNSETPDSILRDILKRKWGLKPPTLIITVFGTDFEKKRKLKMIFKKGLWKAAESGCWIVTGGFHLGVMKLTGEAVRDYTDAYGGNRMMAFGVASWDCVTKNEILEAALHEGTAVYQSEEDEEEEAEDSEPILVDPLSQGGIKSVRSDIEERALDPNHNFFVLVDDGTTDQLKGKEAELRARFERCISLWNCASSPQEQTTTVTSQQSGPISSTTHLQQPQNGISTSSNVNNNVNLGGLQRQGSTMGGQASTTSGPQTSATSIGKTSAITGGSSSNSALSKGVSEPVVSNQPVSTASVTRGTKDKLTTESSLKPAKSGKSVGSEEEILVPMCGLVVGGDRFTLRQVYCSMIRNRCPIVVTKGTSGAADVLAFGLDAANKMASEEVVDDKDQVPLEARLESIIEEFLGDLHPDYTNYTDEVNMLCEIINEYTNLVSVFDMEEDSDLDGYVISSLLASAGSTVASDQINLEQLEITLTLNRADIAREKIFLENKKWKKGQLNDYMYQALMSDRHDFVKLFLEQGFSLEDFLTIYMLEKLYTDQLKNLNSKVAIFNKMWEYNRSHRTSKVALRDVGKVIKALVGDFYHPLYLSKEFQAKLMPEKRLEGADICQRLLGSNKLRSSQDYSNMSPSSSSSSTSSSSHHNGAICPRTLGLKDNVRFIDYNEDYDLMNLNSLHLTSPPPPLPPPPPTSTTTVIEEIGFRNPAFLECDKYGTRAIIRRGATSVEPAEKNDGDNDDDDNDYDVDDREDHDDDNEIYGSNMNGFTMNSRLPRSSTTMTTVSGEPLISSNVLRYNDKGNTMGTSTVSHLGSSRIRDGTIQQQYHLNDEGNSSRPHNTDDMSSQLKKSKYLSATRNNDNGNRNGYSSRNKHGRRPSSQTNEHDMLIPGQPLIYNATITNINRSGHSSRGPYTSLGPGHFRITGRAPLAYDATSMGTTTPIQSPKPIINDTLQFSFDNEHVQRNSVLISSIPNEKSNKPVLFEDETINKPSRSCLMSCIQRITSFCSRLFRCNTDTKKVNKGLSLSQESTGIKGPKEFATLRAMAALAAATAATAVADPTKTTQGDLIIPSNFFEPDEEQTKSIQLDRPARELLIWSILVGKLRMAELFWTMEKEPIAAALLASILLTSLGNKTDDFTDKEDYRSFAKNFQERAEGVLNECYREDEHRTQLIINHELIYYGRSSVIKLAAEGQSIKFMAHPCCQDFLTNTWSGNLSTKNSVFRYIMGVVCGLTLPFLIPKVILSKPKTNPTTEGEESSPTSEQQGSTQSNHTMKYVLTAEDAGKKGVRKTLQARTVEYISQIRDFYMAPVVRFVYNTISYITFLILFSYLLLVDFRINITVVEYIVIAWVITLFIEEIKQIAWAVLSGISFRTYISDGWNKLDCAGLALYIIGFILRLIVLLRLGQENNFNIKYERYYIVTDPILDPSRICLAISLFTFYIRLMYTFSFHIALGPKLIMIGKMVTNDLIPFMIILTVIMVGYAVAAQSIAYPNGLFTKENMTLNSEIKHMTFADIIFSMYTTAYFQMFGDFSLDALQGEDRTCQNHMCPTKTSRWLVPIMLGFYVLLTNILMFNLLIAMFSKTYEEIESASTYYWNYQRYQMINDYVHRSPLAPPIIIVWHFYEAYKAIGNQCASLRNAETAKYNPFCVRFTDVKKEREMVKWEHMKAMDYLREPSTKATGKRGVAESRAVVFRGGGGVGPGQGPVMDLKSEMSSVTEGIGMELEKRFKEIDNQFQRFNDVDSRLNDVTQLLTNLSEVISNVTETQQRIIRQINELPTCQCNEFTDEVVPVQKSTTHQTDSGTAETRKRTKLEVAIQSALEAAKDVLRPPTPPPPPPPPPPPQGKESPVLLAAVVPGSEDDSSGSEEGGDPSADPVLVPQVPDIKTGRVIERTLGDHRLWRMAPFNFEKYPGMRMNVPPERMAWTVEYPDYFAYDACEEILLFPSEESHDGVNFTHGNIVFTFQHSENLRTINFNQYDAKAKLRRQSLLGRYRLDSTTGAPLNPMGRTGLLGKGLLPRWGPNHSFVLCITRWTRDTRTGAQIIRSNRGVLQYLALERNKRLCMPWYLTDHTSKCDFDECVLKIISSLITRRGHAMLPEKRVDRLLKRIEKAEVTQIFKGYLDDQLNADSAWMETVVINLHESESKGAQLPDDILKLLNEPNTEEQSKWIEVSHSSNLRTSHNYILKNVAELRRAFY
Sequence of Eg.TRPMPZQ (W6UVV9 entry or part of it): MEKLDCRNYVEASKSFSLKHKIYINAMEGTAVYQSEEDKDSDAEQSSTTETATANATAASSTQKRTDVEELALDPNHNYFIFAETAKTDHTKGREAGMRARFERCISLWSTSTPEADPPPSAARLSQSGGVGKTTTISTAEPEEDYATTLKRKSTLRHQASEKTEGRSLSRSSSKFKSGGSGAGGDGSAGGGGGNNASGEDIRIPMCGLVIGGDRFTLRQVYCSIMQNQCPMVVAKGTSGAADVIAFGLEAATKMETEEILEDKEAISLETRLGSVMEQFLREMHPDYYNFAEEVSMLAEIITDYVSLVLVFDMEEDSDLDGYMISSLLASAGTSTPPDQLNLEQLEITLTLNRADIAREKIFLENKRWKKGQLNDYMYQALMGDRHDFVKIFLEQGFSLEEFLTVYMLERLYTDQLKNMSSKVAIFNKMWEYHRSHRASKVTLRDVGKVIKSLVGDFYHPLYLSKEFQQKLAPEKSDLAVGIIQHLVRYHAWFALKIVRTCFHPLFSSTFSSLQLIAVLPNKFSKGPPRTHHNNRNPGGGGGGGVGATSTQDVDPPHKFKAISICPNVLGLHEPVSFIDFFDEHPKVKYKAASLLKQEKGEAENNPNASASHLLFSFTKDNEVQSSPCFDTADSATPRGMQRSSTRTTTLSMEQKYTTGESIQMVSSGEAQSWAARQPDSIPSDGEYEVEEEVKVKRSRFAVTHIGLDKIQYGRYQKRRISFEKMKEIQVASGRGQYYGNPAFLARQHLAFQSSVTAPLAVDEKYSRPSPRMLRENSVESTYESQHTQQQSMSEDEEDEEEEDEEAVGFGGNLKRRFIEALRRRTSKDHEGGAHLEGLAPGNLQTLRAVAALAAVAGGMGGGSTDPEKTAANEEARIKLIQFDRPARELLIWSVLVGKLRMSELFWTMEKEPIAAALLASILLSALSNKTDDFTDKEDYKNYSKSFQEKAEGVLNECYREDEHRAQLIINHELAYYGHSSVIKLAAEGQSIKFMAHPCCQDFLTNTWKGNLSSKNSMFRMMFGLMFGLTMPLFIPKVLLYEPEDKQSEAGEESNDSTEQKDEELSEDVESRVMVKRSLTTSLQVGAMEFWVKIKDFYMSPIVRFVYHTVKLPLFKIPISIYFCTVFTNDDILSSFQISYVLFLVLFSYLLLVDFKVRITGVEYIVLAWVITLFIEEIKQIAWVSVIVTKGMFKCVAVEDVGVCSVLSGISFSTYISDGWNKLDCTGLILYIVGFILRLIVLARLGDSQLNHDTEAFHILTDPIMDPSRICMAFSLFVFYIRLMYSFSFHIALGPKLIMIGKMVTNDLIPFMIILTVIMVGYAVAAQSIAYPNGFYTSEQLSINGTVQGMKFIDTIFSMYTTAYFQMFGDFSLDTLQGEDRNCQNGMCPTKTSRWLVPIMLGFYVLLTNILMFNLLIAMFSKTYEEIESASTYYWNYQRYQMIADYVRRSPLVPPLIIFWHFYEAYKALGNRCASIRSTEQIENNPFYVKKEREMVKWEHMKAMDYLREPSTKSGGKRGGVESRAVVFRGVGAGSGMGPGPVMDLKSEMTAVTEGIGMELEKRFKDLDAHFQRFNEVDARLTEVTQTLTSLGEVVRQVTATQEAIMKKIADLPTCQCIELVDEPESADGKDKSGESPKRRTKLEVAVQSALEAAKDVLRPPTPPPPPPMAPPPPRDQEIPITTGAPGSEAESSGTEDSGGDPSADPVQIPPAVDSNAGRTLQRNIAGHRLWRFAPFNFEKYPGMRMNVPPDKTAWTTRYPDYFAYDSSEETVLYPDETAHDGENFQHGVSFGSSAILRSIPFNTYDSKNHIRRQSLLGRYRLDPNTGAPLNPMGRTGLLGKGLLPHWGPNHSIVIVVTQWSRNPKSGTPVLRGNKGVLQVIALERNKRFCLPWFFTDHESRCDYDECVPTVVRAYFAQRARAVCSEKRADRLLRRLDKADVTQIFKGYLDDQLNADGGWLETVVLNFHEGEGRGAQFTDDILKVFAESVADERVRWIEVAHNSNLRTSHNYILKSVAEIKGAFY

As for `O=C(c1cccnc1)N1CC(=O)N2CCc3ccccc3C2C1` (racemic) [(±)-2], the “activity at cestode TRPMPZQ orthologs (in words)” value on Eg.TRPMPZQ is listed as “low-micromolar potency”. Further, the “previous studies S. mansoni in vivo (activity grade, worm reduction)” value in the assay with S. mansoni [1] was “+”. Besides, the “previous studies H. nana in vivo (activity grade, worm reduction)” value in the assay with H. nana was “+++”. On Sm.TRPMPZQ, the “activity at Sm.TRPMPZQ (in words)” value is recorded as “little activity” and the “this work: EC50 (μM) Sm.TRPMPZQ” value is “inactive”. Also, in the assay on S. mansoni [2], the “previous studies S. mansoni in vitro (activity grade)” value (from here on “previous studies S. mansoni in vitro”) was “+ (“+” indicates a less than maximal effect at ≤320 μM)”.
Usually IC50 stands for the point on the concentration scale where inhibition reaches its midpoint. The EC50 is the concentration at which the effect is half-maximal. As to `O=C(c1cccnc1)N1CC(=O)N2CCc3ccccc3[C@@H]2C1` [(R)-2], the “previous studies S. mansoni in vivo (activity grade, worm reduction)” value in the assay on S. mansoni [1] was “++”. For the same compound, the “previous studies H. nana in vivo (activity grade, worm reduction)” value in the assay on H. nana is recorded as “+++”. In assay [3] (after 24 h), this compound yielded an IC50 of around 3 µM. Moreover, the EC50 on Sm.TRPMPZQ was above 100 µM. Also, the “previous studies S. mansoni in vitro” value with S. mansoni [2] was 0 (“0” indicates no effect at ≤320 μM).
Take `O=C(C1CCCCC1)N1CC(=O)N2CCc3ccccc3[C@@H]2C1` [(R)-PZQ, reference compound]: the “previous studies S. mansoni in vivo (activity grade, worm reduction)” value in the assay on S. mansoni [1] was “+++”. Also, the “previous studies H. nana in vivo (activity grade, worm reduction)” value in the assay on H. nana is recorded as “+++”. In the assay with S. mansoni [2], the “previous studies S. mansoni in vitro” value is given as “+++ (“+++” indicates a maximal effect ≤3.2 μM)”.
Consider `O=C(c1cccnc1)N1CC(=O)N2CCc3ccccc3[C@H]2C1` [(S)-2], for which the “previous studies S. mansoni in vivo (activity grade, worm reduction)” value in the assay with S. mansoni [1] is listed as 0. Further, the “previous studies H. nana in vivo (activity grade, worm reduction)” value in the assay with H. nana is “++”. In assay [3] (after 24 h), this compound displayed an IC50 of around 30 µM. Moreover, the “this work: EC50 (μM) Sm.TRPMPZQ” value on Sm.TRPMPZQ is “inactive”. For the same compound, the “previous studies S. mansoni in vitro” value in the assay on S. mansoni [2] is given as 0 (“0” indicates no effect at ≤320 μM).
For `O=C(C1CCCCC1)N1CC(=O)N2CCc3ccccc3[C@H]2C1` [(S)-PZQ, reference compound], the “previous studies S. mansoni in vivo (activity grade, worm reduction)” value in the assay with S. mansoni [1] is listed as “+”. In addition, in the assay with H. nana, the “previous studies H. nana in vivo (activity grade, worm reduction)” value was “++”. Moreover, in the assay with S. mansoni [2], the “previous studies S. mansoni in vitro” value is given as “++ (“++” indicates a maximal effect ≤320 μM)”.
Consider `O=C(C1CCCCC1)N1CC(=O)N2CCc3ccccc3C2C1` (stereo not shown) [Compound 1, praziquantel], for which the “previous studies S. mansoni in vivo (activity grade, worm reduction)” value with S. mansoni [1] is “+++”. Also, in the assay with H. nana, the “previous studies H. nana in vivo (activity grade, worm reduction)” value is given as “+++”. Further, in assay [3] ((±)-PZQ 1 μM, (R)-2 30 μM, (S)-2 100 μM, compared with vehicle control), the “contraction of the protoscoleces (in words)” value is on record as “sustained contraction”. This compound also yielded an IC50 in assay [3] (12 h postincubation) of around 0.1 µM. Moreover, the “effect of prolonged treatment on protoscoleces (in words)” value in assay [3] (after 24 h) is recorded as “toxic”. Further, in assay [3] (low concentrations, early time points (0.5 h)), the “effect of low concentrations on motility (in words)” value is listed as “stimulated motility”. The “previous studies S. mansoni in vitro” value in the assay with S. mansoni [2] is reported as “+++ (“+++” indicates a maximal effect ≤3.2 μM)”.
Take `O=C(c1ccc([N+](=O)[O-])cc1)N1CC(=O)N2CCc3ccccc3C2C1` (stereo not shown) [Compound 3]: in the assay with S. mansoni [1], the “previous studies S. mansoni in vivo (activity grade, worm reduction)” value was “+”. Moreover, in the assay on H. nana, the “previous studies H. nana in vivo (activity grade, worm reduction)” value is listed as “++”. Further, the “this work: EC50 (μM) Sm.TRPMPZQ” value at Sm.TRPMPZQ is “inactive”. The “previous studies S. mansoni in vitro” value in the assay on S. mansoni [2] is given as 0 (“0” indicates no effect at ≤320 μM).
Regarding `CNc1ccc(C(=O)N2CC(=O)N3CCc4ccccc4C3C2)cc1` (stereo not shown) [Compound 4], in the assay on S. mansoni [1], the “previous studies S. mansoni in vivo (activity grade, worm reduction)” value is reported as “++”. In the assay with H. nana, the “previous studies H. nana in vivo (activity grade, worm reduction)” value is “+++”. Further, on Sm.TRPMPZQ, the “this work: EC50 (μM) Sm.TRPMPZQ” value was “inactive”. Also, the “previous studies S. mansoni in vitro” value with S. mansoni [2] is listed as 0 (“0” indicates no effect at ≤320 μM).
Regarding `CN(C)c1ccc(C(=O)N2CC(=O)N3CCc4ccccc4C3C2)cc1` (stereo not shown) [Compound 5], the “previous studies S. mansoni in vivo (activity grade, worm reduction)” value with S. mansoni [1] is “++”. Also, the “previous studies H. nana in vivo (activity grade, worm reduction)” value in the assay with H. nana is given as “+++”. Besides, on Sm.TRPMPZQ, the “this work: EC50 (μM) Sm.TRPMPZQ” value is “inactive”. In addition, the “previous studies S. mansoni in vitro” value in the assay with S. mansoni [2] is 0 (“0” indicates no effect at ≤320 μM).
With `Nc1ccc(C(=O)N2CC(=O)N3CCc4ccccc4C3C2)cc1` (stereo not shown) [Compound 6], the “previous studies S. mansoni in vivo (activity grade, worm reduction)” value in the assay on S. mansoni [1] is “++”. In the assay on H. nana, the “previous studies H. nana in vivo (activity grade, worm reduction)” value is recorded as “+++”. Moreover, at Sm.TRPMPZQ, the EC50 was 11.6 µM and 12 µM. For the same compound, in the assay with S. mansoni [2], the “previous studies S. mansoni in vitro” value is “++ (“++” indicates a maximal effect ≤320 μM)”.
Take `N[C@H]1CC[C@@H](C(=O)N2CC(=O)N3CCc4ccccc4C3C2)CC1` (stereo partly shown) [Compound 7]: the “activity at cestode TRPMPZQ orthologs (in words)” value at Eg.TRPMPZQ was “only weakly active”. Besides, the “previous studies S. mansoni in vivo (activity grade, worm reduction)” value with S. mansoni [1] is 0. Besides, the “previous studies H. nana in vivo (activity grade, worm reduction)” value in the assay on H. nana is given as “+”. For the same compound, at Sm.TRPMPZQ, the “activity at Sm.TRPMPZQ (in words)” value was “lacked activity” and the “this work: EC50 (μM) Sm.TRPMPZQ” value is “inactive”. In the assay with S. mansoni [2], the “previous studies S. mansoni in vitro” value is on record as 0 (“0” indicates no effect at ≤320 μM).
As to `O=C(C1CC1)N1CC(=O)N2CCc3ccccc3C2C1` (stereo not shown) [Compound 8], at Eg.TRPMPZQ, the “concentrations activating both cestode TRPMPZQ representatives” value is above 10 µM and the “activity at cestode TRPMPZQ orthologs (in words)” value is “clearly active”. For the same compound, the “previous studies S. mansoni in vivo (activity grade, worm reduction)” value with S. mansoni [1] is given as “+”. Also, the “previous studies H. nana in vivo (activity grade, worm reduction)” value in the assay with H. nana was “++”. Also, on Sm.TRPMPZQ, the “activity at Sm.TRPMPZQ (in words)” value is given as “Little activity” and the “this work: EC50 (μM) Sm.TRPMPZQ” value was “inactive”. In addition, the “previous studies S. mansoni in vitro” value in the assay on S. mansoni [2] was 0 (“0” indicates no effect at ≤320 μM).
